# Values quoted from earlier work as cited in patent US9308173B2, “Slow-releasing ophthalmic compositions comprising povidone iodine” (JIANGSU DEDA PHARMACEUTICALS CO., LTD., priority 2011, dated 2016).
# Where two headings read alike, the source gives them in different places.
# Tested on: infected eyes
substance,measurement,setting,value
Povidone iodine [PVP-I],Toxicity and irritation to the eye,0.02% eye drop (Grimes et al. 1992),without the toxic affection and irritation
same,Germicidal effect,"0.02% eye drop, infected eyes treated repeatedly (Grimes et al. 1992)",same germicidal effects as one with concentration of 5.0% povidone iodine
same,Toxicity to the eye,"0.04% eye drops, clinical disinfection of eyes",no noticeable toxicity
same,Toxicity to the eye,eye drops at high concentrations of 5%,toxic effects that cannot be ignored
